Reference: ChEMBL document CHEMBL1201862, “PubChem BioAssay data set” (2004)
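Five compound concentrations were applied to cells in 96-well plates for 48 hours; endpoints were derived by simple linear interpolation of the resulting dose-response curve. GI50: concentration for 50% inhibition of growth.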 Activity calls are given as the source filed them. Rule as the data show it: active = GI50 up to about 1.1 µM and inactive = higher.

Key:
Test in all cases: DTP human tumour cell line panel, 48 h
SNB-19 = system: SNB-19
SR = system: SR
HCT-116 = system: HCT-116
NCI-H522 = system: NCI-H522
Malme-3M = system: Malme-3M
OVCAR-3 = system: OVCAR-3
CAKI-1 = system: CAKI-1
SK-MEL-28 = system: SK-MEL-28
OVCAR-5 = system: OVCAR-5
K562 = system: K562
DMS-114 = system: DMS-114
SK-MEL-2 = system: SK-MEL-2
IGROV-1 = system: IGROV-1
HOP-92 = system: HOP-92
A498 = system: A498
COLO 205 = system: COLO 205

Nc1c([N+](=O)[O-])nc(Cl)c2nncn12
GI50 (SNB-19): > 100 µM (inactive)
GI50 (SR): 19.9 µM (inactive)
GI50 (HCT-116): > 45 µM (inactive)
GI50 (NCI-H522): > 74.6 µM (inactive)
GI50 (Malme-3M): > 100 µM (inactive)
GI50 (OVCAR-3): > 100 µM (inactive)
GI50 (CAKI-1): > 100 µM (inactive)
GI50 (SK-MEL-28): > 100 µM (inactive)
GI50 (OVCAR-5): > 100 µM (inactive)
GI50 (K562): > 72.4 µM (inactive)
GI50 (DMS-114): > 42 µM (inactive)
GI50 (SK-MEL-2): > 100 µM (inactive)
GI50 (IGROV-1): > 100 µM (inactive)
GI50 (HOP-92): > 100 µM (inactive)
GI50 (A498): > 100 µM (inactive)
GI50 (COLO 205): > 43 µM (inactive)

CCOC(=O)/C(=C/c1ccc(C#N)cc1)N(CC)CC
GI50 (SR): > 100 µM (inactive)
GI50 (HCT-116): > 100 µM (inactive)
GI50 (NCI-H522): > 100 µM (inactive)
GI50 (Malme-3M): > 100 µM (inactive)
GI50 (CAKI-1): > 100 µM (inactive)
GI50 (SK-MEL-28): > 100 µM (inactive)
GI50 (OVCAR-5): > 100 µM (inactive)
GI50 (K562): > 100 µM (inactive)
GI50 (DMS-114): > 100 µM (inactive)
GI50 (SK-MEL-2): > 100 µM (inactive)
GI50 (IGROV-1): > 100 µM (inactive)
GI50 (HOP-92): > 100 µM (inactive)
GI50 (A498): > 100 µM (inactive)
GI50 (COLO 205): > 100 µM (inactive)

CC(C)=CCC/C(C)=C/CC/C(C)=C/C1CCC(=O)C1(C)C (centres undefined)
GI50 (SNB-19): 25.1 µM (inactive)
GI50 (SR): 19.7 µM (inactive)
GI50 (HCT-116): 17 µM (inactive)
GI50 (NCI-H522): 15.2 µM (inactive)
GI50 (Malme-3M): 18.3 µM (inactive)
GI50 (OVCAR-3): 17.1 µM (inactive)
GI50 (CAKI-1): 20.7 µM (inactive)
GI50 (SK-MEL-28): 22.1 µM (inactive)
GI50 (OVCAR-5): 19.1 µM (inactive)
GI50 (K562): 19.8 µM (inactive)
GI50 (DMS-114): 14.5 µM (inactive)
GI50 (SK-MEL-2): 17.4 µM (inactive)
GI50 (IGROV-1): 19.1 µM (inactive)
GI50 (HOP-92): 25.9 µM (inactive)
GI50 (A498): 18.5 µM (inactive)
GI50 (COLO 205): 16.2 µM (inactive)

CN1COc2c(n(C)c(=O)[nH]c2=O)C1
GI50 (SNB-19): > 100 µM (inactive)
GI50 (SR): 27.2 µM (inactive)
GI50 (HCT-116): 57.5 µM (inactive)
GI50 (NCI-H522): > 100 µM (inactive)
GI50 (Malme-3M): > 100 µM (inactive)
GI50 (OVCAR-3): > 100 µM (inactive)
GI50 (CAKI-1): > 47.8 µM (inactive)
GI50 (SK-MEL-28): > 100 µM (inactive)
GI50 (OVCAR-5): > 100 µM (inactive)
GI50 (K562): > 100 µM (inactive)
GI50 (DMS-114): > 61.2 µM (inactive)
GI50 (SK-MEL-2): > 100 µM (inactive)
GI50 (IGROV-1): > 100 µM (inactive)
GI50 (HOP-92): > 100 µM (inactive)
GI50 (A498): > 100 µM (inactive)
GI50 (COLO 205): 59 µM (inactive)

COC(=O)[C@@H]1Cc2c([nH]c3ccccc23)[C@H](c2ccccc2)N1
GI50 (SNB-19): 37.6 µM (inactive)
GI50 (SR): 29.2 µM (inactive)
GI50 (HCT-116): 29.4 µM (inactive)
GI50 (NCI-H522): 21.7 µM (inactive)
GI50 (Malme-3M): 94 µM (inactive)
GI50 (OVCAR-3): 31.6 µM (inactive)
GI50 (CAKI-1): 60.5 µM (inactive)
GI50 (SK-MEL-28): 85.1 µM (inactive)
GI50 (OVCAR-5): > 100 µM (inactive)
GI50 (K562): 45.2 µM (inactive)
GI50 (DMS-114): 32.2 µM (inactive)
GI50 (SK-MEL-2): 32.4 µM (inactive)
GI50 (IGROV-1): 22.8 µM (inactive)
GI50 (HOP-92): 44.9 µM (inactive)
GI50 (A498): 20.9 µM (inactive)
GI50 (COLO 205): 20 µM (inactive)

C=C1C(=O)OC2C1C(OC(=O)/C(C)=C\C)CC1(CO1)C1C(O)C=C(C)C21O (centres undefined)
GI50 (SNB-19): 20.7 µM (inactive)
GI50 (SR): 4.83 µM (inactive)
GI50 (HCT-116): 1.53 µM (inactive)
GI50 (NCI-H522): 0.942 µM (active)
GI50 (Malme-3M): 2.74 µM (inactive)
GI50 (OVCAR-3): 3.77 µM (inactive)
GI50 (CAKI-1): 2.04 µM (inactive)
GI50 (SK-MEL-28): 2.93 µM (inactive)
GI50 (OVCAR-5): 19.7 µM (inactive)
GI50 (K562): 4.72 µM (inactive)
GI50 (DMS-114): 3.19 µM (inactive)
GI50 (SK-MEL-2): 3.72 µM (inactive)
GI50 (IGROV-1): 14.5 µM (inactive)
GI50 (HOP-92): 10.7 µM (inactive)
GI50 (A498): 5.02 µM (inactive)
GI50 (COLO 205): 1.17 µM (inactive)

Cc1cc(Cl)ccc1NC(=O)C(=O)C(C(=O)c1ccccc1)C1OC(=O)c2ccccc21 (centres undefined)
GI50 (SNB-19): > 100 µM (inactive)
GI50 (SR): > 100 µM (inactive)
GI50 (HCT-116): > 100 µM (inactive)
GI50 (NCI-H522): > 100 µM (inactive)
GI50 (Malme-3M): > 100 µM (inactive)
GI50 (CAKI-1): > 100 µM (inactive)
GI50 (SK-MEL-28): > 100 µM (inactive)
GI50 (OVCAR-5): > 100 µM (inactive)
GI50 (K562): > 100 µM (inactive)
GI50 (DMS-114): > 100 µM (inactive)
GI50 (SK-MEL-2): > 100 µM (inactive)
GI50 (IGROV-1): > 100 µM (inactive)
GI50 (HOP-92): > 100 µM (inactive)
GI50 (A498): > 100 µM (inactive)
GI50 (COLO 205): > 100 µM (inactive)
